According to ChEMBL document CHEMBL1135155, “Optimization of the beta-aminoester class of factor Xa inhibitors. Part 2: Identification of FXV673 as a potent and selective inhibitor with excellent In vivo anticoagulant activity” (Bioorg Med Chem Lett, 2002):

Legend:
[1] = biological target: Prothrombin (Homo sapiens, UniProt P00734); experiment: Inhibition of Coagulation factor IIa
[2] = biological target: Coagulation factor X (Homo sapiens, UniProt P00742); experiment: Inhibition of Coagulation factor Xa
[3] = biological target: Serine protease 1 (Homo sapiens, UniProt P07477); experiment: In vitro inhibitory potency against Trypsin
[4] = Selectivity ratio as Ki of Activated protein C / Ki of factor Xa
[5] = biological target: Thrombin and coagulation factor X (Homo sapiens) (UniProt P00734+P00742); experiment: Selectivity ratio as Ki of factor IIA / Ki of factor Xa; type: protein assay
[6] = species on record: Rattus norvegicus; experiment: Concentration at which compound inhibited coagulation of rat plasma in vitro, doubling activated partial thromboplastin time (APTT); type: functional, cell-free
[7] = Selectivity ratio as Ki of Trypsin / Ki of factor Xa
[8] = species on record: Homo sapiens; experiment: Concentration at which compound inhibited coagulation of human plasma in vitro, doubling activated partial thromboplastin time (APTT); type: functional, cell-free
[9] = Selectivity ratio as Ki of Serine proteases tissue plasminogen activator / Ki of factor Xa
[10] = species on record: Rattus norvegicus; experiment: Tested for maximal effective dose in ferrous-chloride induced arterial thrombosis by bolus infusion; type: functional; settings: read-out: MED
[11] = system: Rattus norvegicus; experiment: Tested for maximal effective dose in ferrous-chloride induced arterial thrombosis by intravenous maintenance infusion; type: functional

Chain of Serine protease 1 (P07477 whole entry): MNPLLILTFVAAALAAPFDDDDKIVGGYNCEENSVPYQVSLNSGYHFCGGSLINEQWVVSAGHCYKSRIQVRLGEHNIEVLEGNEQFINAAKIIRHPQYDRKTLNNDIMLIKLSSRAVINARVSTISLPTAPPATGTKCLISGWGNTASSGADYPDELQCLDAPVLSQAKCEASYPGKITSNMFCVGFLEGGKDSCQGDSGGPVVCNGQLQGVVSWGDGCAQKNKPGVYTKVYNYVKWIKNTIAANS
Chain of Coagulation factor X (P00742 41-179 limits assumed): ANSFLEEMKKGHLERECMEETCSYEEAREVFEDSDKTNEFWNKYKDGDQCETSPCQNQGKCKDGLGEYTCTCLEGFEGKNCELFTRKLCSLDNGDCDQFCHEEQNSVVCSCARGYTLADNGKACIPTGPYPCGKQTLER
Chain of Coagulation factor X (P00742 235-488 limits assumed): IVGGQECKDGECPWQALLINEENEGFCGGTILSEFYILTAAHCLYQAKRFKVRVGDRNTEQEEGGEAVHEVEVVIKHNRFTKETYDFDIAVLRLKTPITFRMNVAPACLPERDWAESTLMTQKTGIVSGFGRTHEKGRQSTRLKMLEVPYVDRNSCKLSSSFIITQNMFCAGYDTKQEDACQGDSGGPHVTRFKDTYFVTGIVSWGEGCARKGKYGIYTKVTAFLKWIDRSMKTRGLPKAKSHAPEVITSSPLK
Chain of Thrombin and coagulation factor X (Homo sapiens) (P00742 whole entry, looked up, other chains not shown): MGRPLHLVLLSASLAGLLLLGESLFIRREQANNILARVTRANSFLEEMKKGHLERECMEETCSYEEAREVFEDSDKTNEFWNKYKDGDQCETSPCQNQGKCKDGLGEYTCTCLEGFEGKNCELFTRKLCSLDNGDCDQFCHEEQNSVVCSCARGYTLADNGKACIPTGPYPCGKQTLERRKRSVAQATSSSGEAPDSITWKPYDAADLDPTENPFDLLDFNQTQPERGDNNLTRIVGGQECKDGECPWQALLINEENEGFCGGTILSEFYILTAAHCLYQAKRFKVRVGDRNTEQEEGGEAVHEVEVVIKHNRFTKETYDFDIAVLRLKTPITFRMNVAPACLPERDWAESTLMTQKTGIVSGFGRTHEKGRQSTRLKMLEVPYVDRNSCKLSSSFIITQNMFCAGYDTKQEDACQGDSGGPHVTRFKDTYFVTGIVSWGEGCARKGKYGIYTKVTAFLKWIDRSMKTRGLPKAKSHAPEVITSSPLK

Compound | Ki [1] [nM] | Ki [2] [nM] | Ki [3] [nM] | further results
COC(=O)[C@H](Cc1cccc(C(=N)N)c1)[C@@H](C)NC(=O)c1ccc(-c2cccnc2)cc1 | 4000 | 8 | 368 | 
COC(=O)[C@H](Cc1cccc(C(=N)N)c1)[C@@H](C)NC(=O)c1ccc(-c2ncc[nH]2)cc1 | > 4000 | 46 | 490 | 
COC(=O)[C@H](Cc1cccc(C(=N)N)c1)[C@@H](C)NC(=O)c1ccc(-n2ccnc2)cc1 | > 4000 | 6 | > 2900 | 
COC(=O)[C@H](Cc1cccc(C(=N)N)c1)[C@@H](C)NC(=O)c1ccc(-c2ccc[n+](C)c2)cc1 | > 4000 | 0.8 | 52 | 
COC(=O)[C@H](Cc1cccc(C(=N)N)c1)[C@@H](C)NC(=O)c1ccc(-c2c[nH]cn2)cc1 | > 4000 | 3 | 170 | 
COC(=O)[C@H](Cc1cccc(C(=N)N)c1)[C@@H](C)NC(=O)c1ccc(-c2cc[n+](C)cc2)cc1 | > 4000 | 2.7 | 168 | 
COC(=O)[C@H](Cc1cccc(C(=N)N)c1)[C@@H](C)NC(=O)c1ccc(-c2ccncc2)cc1 | > 4000 | 0.5 | 76 | 

More lines, main results first:

Ki [1] [nM] | Ki [2] [nM] | Ki [3] [nM] | Compound | further results
> 4000 | 0.58 | 36 | COC(=O)[C@H](Cc1cccc(C(=N)N)c1)[C@@H](C)NC(=O)c1ccc(-c2cccc[n+]2[O-])cc1 | 
3250 |  |  | COC(=O)[C@H](Cc1cccc(C(=N)N)c1)[C@@H](C)NC(=O)c1ccc(-c2ccccc2)cc1 | Ratio [4]: > 1000; Ratio [5]: 610; Concentration [6]: 5.1 µM; Ratio [7]: 13; Concentration [8]: 3.9 µM; Ratio [9]: > 1000
> 4000 |  | 301 | COC(=O)[C@H](Cc1cccc(C(=N)N)c1)[C@@H](C)NC(=O)c1ccc(-c2cc[n+]([O-])cc2)cc1 [OTAMIXABAN] | Ratio [4]: > 10000; Ratio [5]: > 10000; Concentration [6]: 0.8 µM; Ratio [7]: 750; Concentration [8]: 0.41 µM; minimal effective dose [10]: 0.05 mg/kg; MED [11]: 5 µg/min/kg; Ratio [9]: > 10000
> 4000 | 2 | 130 | COC(=O)[C@H](Cc1cccc(C(=N)N)c1)[C@@H](C)NC(=O)c1ccc(-c2ccc[n+]([O-])c2)cc1 | 
2800 | 0.89 | 51 | COC(=O)[C@H](Cc1cccc(C(=N)N)c1)[C@@H](C)NC(=O)c1ccc(-c2ccccn2)cc1 | 
> 4000 | 1.2 | 36 | COC(=O)[C@H](Cc1cccc(C(=N)N)c1)[C@@H](C)NC(=O)c1ccc(-c2cccc[n+]2C)cc1 | 
